Results on one compound are retold here after patent US7345091B2, “Carotenoid ether analogs or derivatives for the inhibition and amelioration of disease” (Cardax Pharmaceuticals, Inc., priority 2002, dated 2008).

SMILES strings stand for the structures. Where a name gives a salt, the structure may show the parent alone.

For series [1], the system named is Cx43 protein. Kind of series: Cx43 protein expression by stereoisomer forms (immuno-(Western) blotting, 4 days). In kind it is cell-based, mouse. To be noted: 1×10^-5 M in 1:2 ethanol/H2O. The procedure: (2) Molecular Studies. […] Briefly, mouse embryonic fibroblast C3H10T1/2 cells were cultured in Eagle's basal medium with Earle's salts (Atlanta Biologicals, Atlanta, Ga.), supplemented with 5% fetal calf serum (Atlanta Biologicals, Atlanta, Ga.) and 25 μg/mL gentamicin sulfate (Sigma, St. Louis, Mo.), and incubated at 37° C. in 5% CO2. On the 7th day after seeding in 100 millimeter (mm) dishes, the confluent cells were treated for four days with the disodium salt disuccinate astaxanthin derivatives XVI and then harvested and analyzed for Cx43 protein induction as described. Protein content was measured using the Protein Assay Reagent kit (Pierce Chemical Co., Rockford, Ill.) according to manufacturer's instructions. Cell lysates containing 100 μg of protein were analyzed by Western blotting using the NuPage western blotting kit and apparatus (Invitrogen, Carlsbad, Calif.) and Cx43 protein detected using a rabbit polyclonal antibody (Zymed, San Francisco, Calif.) raised against a synthetic polypeptide corresponding to the C-terminal domain of mouse, human and rat Cx43. Cx43 immunoreactive bands were visualized by chemiluminescence using an anti-rabbit HRP-conjugated secondary antibody (Pierce Chemical Co., Rockford, Ill.). Digital images were obtained with a cooled CCD camera, and quantitative densitometry was then performed (Bio-Rad, Richmond, Calif.).

The subject of series [2] is male Sprague-Dawley rats. Kind of series: Infarct size reduction after coronary artery occlusion/reperfusion. In kind it is in vivo, rat. The settings on record: for relationship of infarct size reduction / myocardial salvage to dose: 25, 50, 75 mg/kg I.V. The procedure:
FIG. 4, FIG. 25, and FIG. 26 depict graphical representations of the reduction of infarct size in male Sprague-Dawley rats. Male Sprague-Dawley rats were pre-treated with the disodium salt disuccinate astaxanthin derivative XVI (as the mixture of stereoisomers) in aqueous solution before performing an occlusion and inducing a myocardial infarction. Male Sprague-Dawley rats (175-200 grams) were anaesthetized with 100 mg/kg of Inactin, instrumented, and the heart exposed. […] The hearts were washed in buffer and incubated in triphenyltetrazolium chloride (TTC) staining solution kept at 37° C. in phosphate buffer at pH of 7.40. Infarct size (IS) was expressed as a % of the area at risk (IS/AAR, %). Systemic blood pressure, heart rate, blood gases and body temperature were monitored throughout the experiment, and temperature and blood gases were tightly controlled at normal physiological levels. 25, 50, or 75 mg/kg of the disodium salt disuccinate astaxanthin derivative XVI or sterile saline vehicle was administered I.V. by tail vein injection every day for 4 days prior to the infarct experiment on day 5 and subsequent infarct size determination.

Series [3] is described as follows: Single dose oral plasma pharmacokinetics. In kind it is in vivo, male C57BL/6 mice. To be noted: free astaxanthin, single 500 mg/kg oral dose. The procedure: Single dose oral pharmacokinetic parameters (including Cmax, Tmax, AUC(0-72) Vd, and clearance) of the disodium disuccinate astaxanthin derivative XVI were determined in male C57BL/6 mice. The animals were administered the derivative orally at a single maximum dose (500 mg/kg) shown in prior studies to likely be efficacious in preventing the injury secondary to CCl4-administration in Sprague-Dawley rats (100 mg/kg body weight in those studies). Samples for HPLC analysis of levels of free astaxanthin in plasma and liver were obtained at the following time points, from at least 3 animals per time point: Time 0 [Immediately Before Dosing of Test Compound], 2, 4, 6, 8, 12, 16, 24, 48, and 72 Hours After Ingestion. Additional samples, with N<3, were taken at other intervals (10, 14, and 36 hours; Tables 2 and 3). Non-esterified, free astaxanthin levels were determined in this study as carotenoid esters are completely cleaved in the mammalian gut to free carotenoid, which moves passively across the enterocyte. 5 Male C57BL/6 mice, approximately 25 g, were housed in cages (three mice/cage) and fed standard mouse chow (Purina Mouse Chow, Ralston Purina, St. Louis) and water ad libitum for at least five days prior to the start of the experiment. […]

Series [4] relates to C-reactive protein (CRP). The series can be described thus: Circulating C-reactive protein levels (ELISA) in croton oil-stimulated infarct model. In kind it is in vivo, rabbit. The settings on record: 50 mg/kg IV for 4 days; 1% croton oil; sample at time of reperfusion; controls +23.5%. From the text:
The influence of parenteral administration of the disodium disuccinate astaxanthin derivative (XVI) on induced infarct size and induced levels of circulating C-reactive protein (CRP) in rabbits was investigated using the methods of Barrett et al. (2002) with slight modifications. The purpose of the current study was to investigate the ability of the disodium disuccinate astaxanthin derivative (XVI) to reduce inflammation as measured by CRP in the setting of experimental myocardial ischemia-reperfusion injury in the rabbit heart. […] Therefore, reduction of circulating CRP levels, together with the reduction(s) in infarct size previously noted with Cardax™ in rodents, would form a powerful anti-inflammatory therapeutic modality in the acute coronary syndrome setting.
In brief, male New Zealand white rabbits (2.25-2.5 kg) were used for the study. The acute phase inflammatory response was induced by subcutaneous injection of four aliquots (0.5 mL each) of 1% croton oil in corn oil beginning on the second day of pre-treatment with Cardax™. Either Cardax™ (at 50 mg/kg IV by ear vein injection) in water or equal volumes of sterile saline were given once per day for 4 days prior to experimental infarction on day 5. The time course of increases in circulating CRP levels were obtained as described previously (Barret et al. 2002), using an ELISA-based method with anti-rabbit CRP antibodies. […]

On to `CC1=C(/C=C/C(C)=C/C=C/C(C)=C/C=C/C=C(C)/C=C/C=C(C)/C=C/C2=C(C)C(=O)C(OC(=O)CCC(=O)O)CC2(C)C)C(C)(C)CC(OC(=O)CCC(=O)O)C1=O` (racemic) [XVI, Disodium Salt of the Disuccinic Acid Ester of Astaxanthin], for which the “rank of Cx43 induction level among derivatives” value in series [1] is reported as “highest induction level of Cx43 of all derivatives tested”. Moreover, the “expression of Cx43 protein” value in series [1] (four days, vs 1:2 ethanol/H2O alone) was “increase expression of Cx43 protein”. The mean myocardial salvage in series [2] (75 mg/kg I.V. daily for 4 days before 30 min occlusion / 2 hours reperfusion) is reported as 56%. The “relationship of infarct size reduction / myocardial salvage to dose” value was “increased linearly, and significantly, with dose” in series [2]; “linear relationship between dose and infarct size reduction” in series [2] (listed as Cardax™). In series [3], this compound gave an Oral clearance of 216.822 L/h. For the same compound, in series [4], the “mean change in circulating CRP levels from baseline” value was −15.7%.
